Like-named read-outs stand apart in the source and are kept apart here. Where no end group is shown, it is not given here.
Assays:
[1] = tested on: human adipose-derived mesenchymal stem cells (AD-MSC)
Procedure: (§1) The aim was to analyze the cytotoxicity caused by the addition of Peptide-1 or Peptide-2 to human adipose-derived mesenchymal stem cells (AD-MSC) using the CCK-8 assay.
(§2) Specifically, AD-MSC cells were seeded in 96-well plates at a density of 1.5×10^3 cells/well and cultured in Dulbecco's Modified Eagle's Medium (DMEM) supplemented with 10% FBS for 24 hours. Then, the medium was replaced with DMEM medium supplemented with 5% FBS, and Peptide-1 or Peptide-2 was treated at different concentrations, respectively. Subsequently, the medium was replaced every 3 days and Peptide-1 or Peptide-2 was treated at different concentrations, respectively. To confirm CCK-8 activity, after 7 days, CCK-8 (Dojindo, CCK-8 kit) solution was added at 1/10 volume of the culture medium, and incubated for 2 hours. The culture medium was sampled and CCK-8 activity was confirmed at a wavelength of 450 nm using a microplate reader.

[2] = tested on: human adipose-derived mesenchymal stem cells (AD-MSC); test: CCK-8 cytotoxicity assay in AD-MSC cells; conditions: different concentrations, 7 days, absorbance 450 nm, FIG. 1, FIG. 2
Procedure: as §1, §2

| Sequence | toxicity toward adipose-derived mesenchymal stem cells (CCK-8 activity) [1] | toxicity toward adipose-derived mesenchymal stem cells (CCK-8 activity) [2] |
| --- | --- | --- |
| QSSLRALR [Peptide-2, QSSLRALR] | did not exhibit toxicity |  |
| SHIAGGLSFHSTV [Peptide-1, SHIAGGLSFHSTV] |  | did not exhibit toxicity |

Reference: patent US20260200984A1, “PEPTIDE FOR CARTILAGE REGENERATION, AND USES THEREOF” (CAREGEN CO., LTD., priority 2022, published 2026)
